Measured values published in PubChem BioAssay (NCI).
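Tested at 5 concentrations; 48 h exposure; 96-well plates; endpoints linearly interpolated, else capped at highest concentration. TGI denotes the concentration required for complete inhibition of growth.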

How the values were obtained:
Experiment in all cases: inhibition of tumour cell growth, NCI panel, 48 h
ACHN renal = system: ACHN renal
LOX IMVI melanoma = system: LOX IMVI melanoma
M14 melanoma = system: M14 melanoma
MALME-3M melanoma = system: MALME-3M melanoma
MCF7 breast = system: MCF7 breast
MDA-N = system: MDA-N
NCI-H226 lung = system: NCI-H226 lung
NCI-H460 lung = system: NCI-H460 lung
OVCAR-5 ovarian = system: OVCAR-5 ovarian
PC-3 prostate = system: PC-3 prostate
SK-OV-3 ovarian = system: SK-OV-3 ovarian
SN12C renal = system: SN12C renal
SW-620 colon = system: SW-620 colon
TK-10 renal = system: TK-10 renal
U251 CNS = system: U251 CNS
UACC-257 melanoma = system: UACC-257 melanoma
COLO 205 colon = system: COLO 205 colon
HOP-62 NSCLC = system: HOP-62 NSCLC
SK-MEL-28 melanoma = system: SK-MEL-28 melanoma
A498 renal = system: A498 renal

## CCc1cc2c(oc3cc(C)ccc32)c(=O)n1C
ACHN renal
  TGI: > 10 µM
LOX IMVI melanoma
  TGI: > 10 µM
M14 melanoma
  TGI: > 10 µM
MALME-3M melanoma
  TGI: > 10 µM
MCF7 breast
  TGI: > 10 µM
MDA-N
  TGI: > 10 µM
NCI-H226 lung
  TGI: > 10 µM
NCI-H460 lung
  TGI: > 10 µM
OVCAR-5 ovarian
  TGI: > 10 µM
PC-3 prostate
  TGI: > 10 µM
SK-OV-3 ovarian
  TGI: > 10 µM
SN12C renal
  TGI: > 10 µM
SW-620 colon
  TGI: > 10 µM
TK-10 renal
  TGI: > 10 µM
U251 CNS
  TGI: > 10 µM
UACC-257 melanoma
  TGI: > 10 µM

## c1ccc2cc3c(cc2c1)nc1ccccn13
ACHN renal
  TGI: > 100 µM
COLO 205 colon
  TGI: > 100 µM
HOP-62 NSCLC
  TGI: > 100 µM
M14 melanoma
  TGI: > 100 µM
MALME-3M melanoma
  TGI: > 100 µM
MCF7 breast
  TGI: > 100 µM
MDA-N
  TGI: > 100 µM
NCI-H226 lung
  TGI: > 100 µM
OVCAR-5 ovarian
  TGI: > 100 µM
PC-3 prostate
  TGI: > 100 µM
SK-MEL-28 melanoma
  TGI: > 100 µM
SK-OV-3 ovarian
  TGI: > 100 µM
SN12C renal
  TGI: > 100 µM
SW-620 colon
  TGI: > 100 µM
TK-10 renal
  TGI: > 100 µM
U251 CNS
  TGI: > 100 µM
UACC-257 melanoma
  TGI: > 100 µM

## O=C1c2ccccc2-c2c1c(-c1cccc(Br)c1)nc1ccc3ccccc3c21
A498 renal
  TGI: > 100 µM
ACHN renal
  TGI: > 100 µM
COLO 205 colon
  TGI: > 100 µM
HOP-62 NSCLC
  TGI: > 100 µM
LOX IMVI melanoma
  TGI: > 100 µM
M14 melanoma
  TGI: > 100 µM
MALME-3M melanoma
  TGI: > 100 µM
MCF7 breast
  TGI: > 100 µM
MDA-N
  TGI: > 100 µM
NCI-H226 lung
  TGI: > 100 µM
NCI-H460 lung
  TGI: > 100 µM
OVCAR-5 ovarian
  TGI: > 100 µM
PC-3 prostate
  TGI: > 100 µM
SK-MEL-28 melanoma
  TGI: > 100 µM
SK-OV-3 ovarian
  TGI: > 100 µM
SN12C renal
  TGI: > 100 µM
SW-620 colon
  TGI: > 100 µM
U251 CNS
  TGI: > 100 µM
UACC-257 melanoma
  TGI: > 100 µM

## CC(C)C(NCc1c(O)ccc2c(-c3ccccc3)cc(=O)oc12)C(=O)O (configuration not stated)
ACHN renal
  TGI: > 100 µM
COLO 205 colon
  TGI: > 100 µM
HOP-62 NSCLC
  TGI: > 100 µM
LOX IMVI melanoma
  TGI: > 100 µM
M14 melanoma
  TGI: > 100 µM
MALME-3M melanoma
  TGI: > 100 µM
MCF7 breast
  TGI: > 100 µM
MDA-N
  TGI: > 100 µM
NCI-H226 lung
  TGI: > 100 µM
NCI-H460 lung
  TGI: > 100 µM
OVCAR-5 ovarian
  TGI: > 100 µM
PC-3 prostate
  TGI: > 100 µM
SK-MEL-28 melanoma
  TGI: > 100 µM
SK-OV-3 ovarian
  TGI: > 100 µM
SN12C renal
  TGI: > 100 µM
SW-620 colon
  TGI: > 100 µM
TK-10 renal
  TGI: > 100 µM
U251 CNS
  TGI: > 100 µM
UACC-257 melanoma
  TGI: > 100 µM

## CCc1n[nH]c(=O)n1CCO
A498 renal
  TGI: > 100 µM
ACHN renal
  TGI: > 100 µM
COLO 205 colon
  TGI: > 100 µM
LOX IMVI melanoma
  TGI: > 100 µM
M14 melanoma
  TGI: > 100 µM
MCF7 breast
  TGI: > 100 µM
MDA-N
  TGI: > 100 µM
NCI-H226 lung
  TGI: > 100 µM
NCI-H460 lung
  TGI: > 100 µM
OVCAR-5 ovarian
  TGI: > 100 µM
PC-3 prostate
  TGI: > 100 µM
SK-MEL-28 melanoma
  TGI: > 100 µM
SK-OV-3 ovarian
  TGI: > 100 µM
SN12C renal
  TGI: > 100 µM
SW-620 colon
  TGI: > 100 µM
TK-10 renal
  TGI: > 100 µM
U251 CNS
  TGI: > 100 µM
UACC-257 melanoma
  TGI: > 100 µM

## C/C=C/[C@H](O[Si](C)(C)C(C)(C)C)[C@@H](O)/C=C/C(=O)OCC
A498 renal
  TGI: 67.9 µM
ACHN renal
  TGI: 30.2 µM
COLO 205 colon
  TGI: 40.6 µM
HOP-62 NSCLC
  TGI: 39.8 µM
LOX IMVI melanoma
  TGI: 33.3 µM
MALME-3M melanoma
  TGI: 28.4 µM
MCF7 breast
  TGI: 45.2 µM
MDA-N
  TGI: 42.8 µM
NCI-H226 lung
  TGI: 83.7 µM
NCI-H460 lung
  TGI: 34.6 µM
OVCAR-5 ovarian
  TGI: 79.5 µM
PC-3 prostate
  TGI: > 100 µM
SK-MEL-28 melanoma
  TGI: 32.4 µM
SN12C renal
  TGI: 48.1 µM
SW-620 colon
  TGI: 39.2 µM
TK-10 renal
  TGI: 75.6 µM
U251 CNS
  TGI: 35.5 µM
UACC-257 melanoma
  TGI: 40.8 µM

## FC1=C2CCCCCC2SC1(F)F (configuration not stated)
ACHN renal
  TGI: 79.3 µM
COLO 205 colon
  TGI: 39.2 µM
LOX IMVI melanoma
  TGI: 31.4 µM
M14 melanoma
  TGI: > 100 µM
MALME-3M melanoma
  TGI: 52.4 µM
MCF7 breast
  TGI: > 100 µM
MDA-N
  TGI: > 100 µM
NCI-H226 lung
  TGI: > 100 µM
OVCAR-5 ovarian
  TGI: > 100 µM
PC-3 prostate
  TGI: > 100 µM
SK-MEL-28 melanoma
  TGI: > 100 µM
SK-OV-3 ovarian
  TGI: > 100 µM
SW-620 colon
  TGI: 28.9 µM
TK-10 renal
  TGI: > 100 µM
UACC-257 melanoma
  TGI: > 100 µM
